According to US20140274688A1, “MOLECULES HAVING CERTAIN PESTICIDAL UTILITIES, AND INTERMEDIATES, COMPOSITIONS, AND PROCESSES RELATED THERETO” (DOW AGROSCIENCES LLC, priority 2013, published 2014):

Experiments:
[1] = test system: Beet Armyworm (Spodoptera exigua) ("BAW"); assay: Bioassay on Beet Armyworm (BAW), 128-well diet tray assay, percent mortality; format: in vivo; conditions: Spodoptera exigua, read-out: BAW
Excerpt: (§1) Bioassays on Beet Armyworm (Spodoptera exigua) (“BAW”) and Cabbage Looper (Trichoplusia ni) (“CL”)
(§2) BAW has few effective parasites, diseases, or predators to lower its population. BAW infests many weeds, trees, grasses, legumes, and field crops. In various places, it is of economic concern upon asparagus, cotton, corn, soybeans, tobacco, alfalfa, sugar beets, peppers, tomatoes, potatoes, onions, peas, sunflowers, and citrus, among other plants. The Cabbage Looper is a member of the moth family Noctuidae. It is found throughout the world. It is attacks cabbage, cauliflower, broccoli, Brussel sprouts, tomatoes, cucumbers, potatoes, kale, turnips, mustard, peppers, eggplant, watermelons, melons, squash, cantaloupe, peas, beans, collards, lettuce, spinach, celery, parsley, beets, peas, alfalfa, soybeans, and cotton. This species is very destructive to plants due to its voracious consumption of leaves. In the case of cabbage, however, they feed not only on the wrapper leaves, but also may bore into the developing head. The larvae consume three times their weight in plant material daily. The feeding sites are marked by large accumulations of sticky, wet fecal material.
(§3) Consequently, because of the above factors control of these pests is important.
(§4) Certain molecules disclosed in this document were tested against BAW and CEW using procedures described in the following examples. In the reporting of the results, the “BAW & CL Rating Table” was used (See Table Section).
(§5) Trays were covered with a clear self-adhesive cover and held at 25° C., 14:10 light-dark for five to seven days. Percent mortality was recorded for the larvae in each well; activity in the eight wells was then averaged. The results are indicated in the table entitled “Table ABC: Biological Results” (See Table Section).

[2] = test system: Cabbage Looper (Trichoplusia ni) ("CL"); assay: Bioassay on Cabbage Looper (CL), 128-well diet tray assay, percent mortality; format: in vivo; conditions: Trichoplusia ni, read-out: CL
Excerpt: as §1, §2, §3, §4
Bioassays on Cabbage Looper in CL
as §5

Cc1ccc(C(C)C)c(N2CC(C)CS/C2=N\C(=O)NCCc2ccc(-c3ncn(-c4ccc(OC(F)(F)F)cc4)n3)cc2)c1 (centres unmarked) [P64, (Z)-1-(3-(2-isopropyl-5-methylphenyl)-5-methyl-1,3-thiazinan-2-ylidene)-3-(4-(1-(4-(trifluoromethoxy)phenyl)-1H-1,2,4-triazol-3-yl)phenethyl)urea]
pest or weed control at 50 µg/cm2 [1]: 50 to 100%
pest or weed control at 50 µg/cm2 [2]: 50 to 100%

Cc1ccc(C(C)C)c(N2C(=O)CS/C2=N\C(=O)NC(C)C(C)c2ccc(-c3ncn(-c4ccc(OC(F)(F)F)cc4)n3)cc2)c1 (centres unmarked) [P66, (Z)-1-(3-(2-isopropyl-5-methylphenyl)-4-oxothiazolidin-2-ylidene)-3-(3-(4-(1-(4-(trifluoromethoxy)phenyl)-1H-1,2,4-triazol-3-yl)phenyl)butan-2-yl)urea]
pest or weed control at 50 µg/cm2 [1]: 50 to 100%
pest or weed control at 50 µg/cm2 [2]: 50 to 100%

Cc1ccccc1N1C(=O)CS/C1=N\C(=O)NCCc1cccc(-c2ncn(-c3ccc(OC(F)(F)F)cc3)n2)c1 [P74, (Z)-1-(4-oxo-3-(o-tolyl)thiazolidin-2-ylidene)-3-(3-(1-(4-(trifluoromethoxy)phenyl)-1H-1,2,4-triazol-3-yl)phenethyl)urea]
pest or weed control at 50 µg/cm2 [1]: 50 to 100%
pest or weed control at 50 µg/cm2 [2]: 50 to 100%

CCc1ccccc1N1C(=O)CS/C1=N\C(=O)NCCc1cccc(-c2ncn(-c3ccc(OC(F)(F)F)cc3)n2)c1 [P75, (Z)-1-(3-(2-ethylphenyl)-4-oxothiazolidin-2-ylidene)-3-(3-(1-(4-(trifluoromethoxy)phenyl)-1H-1,2,4-triazol-3-yl)phenethyl)urea]
pest or weed control at 50 µg/cm2 [1]: 50 to 100%
pest or weed control at 50 µg/cm2 [2]: 50 to 100%

CC(C)c1ccccc1N1C(=O)CS/C1=N\C(=O)NCCc1cccc(-c2ncn(-c3ccc(OC(F)(F)F)cc3)n2)c1 [P76, (Z)-1-(3-(2-isopropylphenyl)-4-oxothiazolidin-2-ylidene)-3-(3-(1-(4-(trifluoromethoxy)phenyl)-1H-1,2,4-triazol-3-yl)phenethyl)urea]
pest or weed control at 50 µg/cm2 [1]: 50 to 100%
pest or weed control at 50 µg/cm2 [2]: 50 to 100%

CCCc1ccc(C)cc1N1C(=O)CS/C1=N\C(=O)NCCc1cccc(-c2ncn(-c3ccc(OC(F)(F)F)cc3)n2)c1 [P80, (Z)-1-(3-(5-methyl-2-propylphenyl)-4-oxothiazolidin-2-ylidene)-3-(3-(1-(4-(trifluoromethoxy)phenyl)-1H-1,2,4-triazol-3-yl)phenethyl)urea]
pest or weed control at 50 µg/cm2 [1]: 50 to 100%
pest or weed control at 50 µg/cm2 [2]: 50 to 100%

CCc1cccc(C)c1N1C(=O)CS/C1=N\C(=O)NCCc1cccc(-c2ncn(-c3ccc(OC(F)(F)F)cc3)n2)c1 [P83, (Z)-1-(3-(2-ethyl-6-methylphenyl)-4-oxothiazolidin-2-ylidene)-3-(3-(1-(4-(trifluoromethoxy)phenyl)-1H-1,2,4-triazol-3-yl)phenethyl)urea]
pest or weed control at 50 µg/cm2 [1]: 50 to 100%
pest or weed control at 50 µg/cm2 [2]: 50 to 100%

Cc1ccc(N2C(=O)CS/C2=N\C(=O)NCCc2cccc(-c3ncn(-c4ccc(OC(F)(F)F)cc4)n3)c2)c(C(C)C)c1 [P84, (Z)-1-(3-(2-isopropyl-4-methylphenyl)-4-oxothiazolidin-2-ylidene)-3-(3-(1-(4-(trifluoromethoxy)phenyl)-1H-1,2,4-triazol-3-yl)phenethyl)urea]
pest or weed control at 50 µg/cm2 [1]: 50 to 100%
pest or weed control at 50 µg/cm2 [2]: 50 to 100%

CC(C)c1cc(F)ccc1N1C(=O)CS/C1=N\C(=O)NCCc1cccc(-c2ncn(-c3ccc(OC(F)(F)F)cc3)n2)c1 [P85, (Z)-1-(3-(4-fluoro-2-isopropylphenyl)-4-oxothiazolidin-2-ylidene)-3-(3-(1-(4-(trifluoromethoxy)phenyl)-1H-1,2,4-triazol-3-yl)phenethyl)urea]
pest or weed control at 50 µg/cm2 [1]: 50 to 100%
pest or weed control at 50 µg/cm2 [2]: 50 to 100%

COc1ccc(N2C(=O)CS/C2=N\C(=O)NCCc2cccc(-c3ncn(-c4ccc(OC(F)(F)F)cc4)n3)c2)c(C)c1 [P87, (Z)-1-(3-(4-methoxy-2-methylphenyl)-4-oxothiazolidin-2-ylidene)-3-(3-(1-(4-(trifluoromethoxy)phenyl)-1H-1,2,4-triazol-3-yl)phenethyl)urea]
pest or weed control at 50 µg/cm2 [1]: 50 to 100%
pest or weed control at 50 µg/cm2 [2]: 50 to 100%

Cc1ccccc1N1C(=O)CS/C1=N\C(=O)NCCCc1ccc(-c2ncn(-c3ccc(OC(F)(F)F)cc3)n2)cc1 [P92, (Z)-1-(4-oxo-3-(o-tolyl)thiazolidin-2-ylidene)-3-(3-(4-(1-(4-(trifluoromethoxy)phenyl)-1H-1,2,4-triazol-3-yl)phenyl)propyl)urea]
pest or weed control at 50 µg/cm2 [1]: 50 to 100%
pest or weed control at 50 µg/cm2 [2]: 50 to 100%

CCc1ccccc1N1C(=O)CS/C1=N\C(=O)NCCCc1ccc(-c2ncn(-c3ccc(OC(F)(F)F)cc3)n2)cc1 [P93, (Z)-1-(3-(2-ethylphenyl)-4-oxothiazolidin-2-ylidene)-3-(3-(4-(1-(4-(trifluoromethoxy)phenyl)-1H-1,2,4-triazol-3-yl)phenyl)propyl)urea]
pest or weed control at 50 µg/cm2 [1]: 50 to 100%
pest or weed control at 50 µg/cm2 [2]: 50 to 100%

CC(C)c1ccccc1N1C(=O)CS/C1=N\C(=O)NCCCc1ccc(-c2ncn(-c3ccc(OC(F)(F)F)cc3)n2)cc1 [P94, (Z)-1-(3-(2-isopropylphenyl)-4-oxothiazolidin-2-ylidene)-3-(3-(4-(1-(4-(trifluoromethoxy)phenyl)-1H-1,2,4-triazol-3-yl)phenyl)propyl)urea]
pest or weed control at 50 µg/cm2 [1]: 50 to 100%
pest or weed control at 50 µg/cm2 [2]: 50 to 100%

CCCc1ccc(C)cc1N1C(=O)CS/C1=N\C(=O)NCCCc1ccc(-c2ncn(-c3ccc(OC(F)(F)F)cc3)n2)cc1 [P99, (Z)-1-(3-(5-methyl-2-propylphenyl)-4-oxothiazolidin-2-ylidene)-3-(3-(4-(1-(4-(trifluoromethoxy)phenyl)-1H-1,2,4-triazol-3-yl)phenyl)propyl)urea]
pest or weed control at 50 µg/cm2 [1]: 50 to 100%
pest or weed control at 50 µg/cm2 [2]: 50 to 100%

CCc1cccc(C)c1N1C(=O)CS/C1=N\C(=O)NCCCc1ccc(-c2ncn(-c3ccc(OC(F)(F)F)cc3)n2)cc1 [P101, (Z)-1-(3-(2-ethyl-6-methylphenyl)-4-oxothiazolidin-2-ylidene)-3-(3-(4-(1-(4-(trifluoromethoxy)phenyl)-1H-1,2,4-triazol-3-yl)phenyl)propyl)urea]
pest or weed control at 50 µg/cm2 [1]: 0 to 50%
pest or weed control at 50 µg/cm2 [2]: 50 to 100%

Cc1ccc(N2C(=O)CS/C2=N\C(=O)NCCCc2ccc(-c3ncn(-c4ccc(OC(F)(F)F)cc4)n3)cc2)c(C(C)C)c1 [P102, (Z)-1-(3-(2-isopropyl-4-methylphenyl)-4-oxothiazolidin-2-ylidene)-3-(3-(4-(1-(4-(trifluoromethoxy)phenyl)-1H-1,2,4-triazol-3-yl)phenyl)propyl)urea]
pest or weed control at 50 µg/cm2 [1]: 50 to 100%
pest or weed control at 50 µg/cm2 [2]: 50 to 100%

CC(C)c1cc(F)ccc1N1C(=O)CS/C1=N\C(=O)NCCCc1ccc(-c2ncn(-c3ccc(OC(F)(F)F)cc3)n2)cc1 [P103, (Z)-1-(3-(4-fluoro-2-isopropylphenyl)-4-oxothiazolidin-2-ylidene)-3-(3-(4-(1-(4-(trifluoromethoxy)phenyl)-1H-1,2,4-triazol-3-yl)phenyl)propyl)urea]
pest or weed control at 50 µg/cm2 [1]: 50 to 100%
pest or weed control at 50 µg/cm2 [2]: 50 to 100%

COc1ccc(N2C(=O)CS/C2=N\C(=O)NCCCc2ccc(-c3ncn(-c4ccc(OC(F)(F)F)cc4)n3)cc2)c(C)c1 [P105, (Z)-1-(3-(4-methoxy-2-methylphenyl)-4-oxothiazolidin-2-ylidene)-3-(3-(4-(1-(4-(trifluoromethoxy)phenyl)-1H-1,2,4-triazol-3-yl)phenyl)propyl)urea]
pest or weed control at 50 µg/cm2 [1]: 50 to 100%
pest or weed control at 50 µg/cm2 [2]: 50 to 100%

Cc1ccccc1N1C(=O)CS/C1=N\C(=O)NCCCc1cccc(-c2ncn(-c3ccc(OC(F)(F)F)cc3)n2)c1 [P118, (Z)-1-(4-oxo-3-(o-tolyl)thiazolidin-2-ylidene)-3-(3-(3-(1-(4-(trifluoromethoxy)phenyl)-1H-1,2,4-triazol-3-yl)phenyl)propyl)urea]
pest or weed control at 50 µg/cm2 [1]: 50 to 100%
pest or weed control at 50 µg/cm2 [2]: 50 to 100%

CCc1ccccc1N1C(=O)CS/C1=N\C(=O)NCCCc1cccc(-c2ncn(-c3ccc(OC(F)(F)F)cc3)n2)c1 [P119, (Z)-1-(3-(2-ethylphenyl)-4-oxothiazolidin-2-ylidene)-3-(3-(3-(1-(4-(trifluoromethoxy)phenyl)-1H-1,2,4-triazol-3-yl)phenyl)propyl)urea]
pest or weed control at 50 µg/cm2 [1]: 50 to 100%
pest or weed control at 50 µg/cm2 [2]: 50 to 100%

CC(C)c1ccccc1N1C(=O)CS/C1=N\C(=O)NCCCc1cccc(-c2ncn(-c3ccc(OC(F)(F)F)cc3)n2)c1 [P120, (Z)-1-(3-(2-isopropylphenyl)-4-oxothiazolidin-2-ylidene)-3-(3-(3-(1-(4-(trifluoromethoxy)phenyl)-1H-1,2,4-triazol-3-yl)phenyl)propyl)urea]
pest or weed control at 50 µg/cm2 [1]: 50 to 100%
pest or weed control at 50 µg/cm2 [2]: 50 to 100%

Cc1ccc(C(C)C)c(N2C(=O)CS/C2=N\C(=O)NCCCc2cccc(-c3ncn(-c4ccc(OC(F)(F)F)cc4)n3)c2)c1 [P124, (Z)-1-(3-(2-isopropyl-5-methylphenyl)-4-oxothiazolidin-2-ylidene)-3-(3-(3-(1-(4-(trifluoromethoxy)phenyl)-1H-1,2,4-triazol-3-yl)phenyl)propyl)urea]
pest or weed control at 50 µg/cm2 [1]: 50 to 100%
pest or weed control at 50 µg/cm2 [2]: 50 to 100%
